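Where inhibition never reached the appropriate level, the endpoint shown equals the highest concentration tested. Otherwise, values were interpolated linearly from a five-concentration, 48-hour dose response in 96-well plates. At the TGI there is no net growth.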
Tests used:
Test in all cases: inhibition of tumour cell growth, NCI panel, 48 h
PC-3 prostate = system: PC-3 prostate
HT29 colon = system: HT29 colon
NCI-H23 lung = system: NCI-H23 lung
HCT-15 colon = system: HCT-15 colon
UO-31 renal = system: UO-31 renal
EKVX NSCLC = system: EKVX NSCLC
SF-268 CNS = system: SF-268 CNS
RPMI-8226 leukemia = system: RPMI-8226 leukemia
MOLT-4 leukemia = system: MOLT-4 leukemia
COLO 205 colon = system: COLO 205 colon
UACC-257 melanoma = system: UACC-257 melanoma
OVCAR-4 ovarian = system: OVCAR-4 ovarian
MDA-MB-231 breast = system: MDA-MB-231 breast
A498 renal = system: A498 renal
MALME-3M melanoma = system: MALME-3M melanoma
CCRF-CEM leukemia = system: CCRF-CEM leukemia
NCI-H522 lung = system: NCI-H522 lung
SNB-75 CNS = system: SNB-75 CNS
SN12C renal = system: SN12C renal
LOX IMVI melanoma = system: LOX IMVI melanoma
HS 578T breast = system: HS 578T breast
HOP-62 NSCLC = system: HOP-62 NSCLC
T-47D breast = system: T-47D breast
MDA-MB-435 = system: MDA-MB-435
SF-539 CNS = system: SF-539 CNS
SK-OV-3 ovarian = system: SK-OV-3 ovarian
NCI/ADR-RES ovarian = system: NCI/ADR-RES ovarian
RXF 393 renal = system: RXF 393 renal
SNB-19 CNS = system: SNB-19 CNS
SR leukemia = system: SR leukemia
NCI-H226 lung = system: NCI-H226 lung
NCI-H460 lung = system: NCI-H460 lung
UACC-62 melanoma = system: UACC-62 melanoma
SK-MEL-2 melanoma = system: SK-MEL-2 melanoma
SK-MEL-28 melanoma = system: SK-MEL-28 melanoma
DU-145 prostate = system: DU-145 prostate
OVCAR-5 ovarian = system: OVCAR-5 ovarian
IGROV1 ovarian = system: IGROV1 ovarian
M14 melanoma = system: M14 melanoma
SK-MEL-5 melanoma = system: SK-MEL-5 melanoma
BT-549 breast = system: BT-549 breast
786-0 renal = system: 786-0 renal
OVCAR-8 ovarian = system: OVCAR-8 ovarian
K-562 leukemia = system: K-562 leukemia
A549 NSCLC = system: A549 NSCLC
U251 CNS = system: U251 CNS
HOP-92 NSCLC = system: HOP-92 NSCLC
TK-10 renal = system: TK-10 renal
HL-60(TB) leukemia = system: HL-60(TB) leukemia
ACHN renal = system: ACHN renal
HCC-2998 colon = system: HCC-2998 colon
MCF7 breast = system: MCF7 breast
OVCAR-3 ovarian = system: OVCAR-3 ovarian
SF-295 CNS = system: SF-295 CNS
KM12 colon = system: KM12 colon
CAKI-1 renal = system: CAKI-1 renal
HCT-116 colon = system: HCT-116 colon
MDA-N = system: MDA-N
SW-620 colon = system: SW-620 colon

Measured: TGI

CCO[C@@]12CCC3CC4CC[C@@](OCC)(O1)C4C32 (stereo partly drawn)
> 100 µM: all assays above

O=C(NNc1ccccc1)c1ccc(Cl)c(Cl)c1
> 67.8 µM: SNB-75 CNS
0.414 µM: COLO 205 colon
> 40.9 µM: HCC-2998 colon
41.6 µM: SK-MEL-5 melanoma
13.9 µM: UACC-257 melanoma
> 54.4 µM: RPMI-8226 leukemia
> 92.5 µM: MALME-3M melanoma
> 94 µM: OVCAR-3 ovarian
99.4 µM: EKVX NSCLC
23 µM: NCI-H522 lung
> 80.1 µM: SK-OV-3 ovarian
> 84 µM: RXF 393 renal
> 66.8 µM: BT-549 breast
59.7 µM: A498 renal
> 60.7 µM: IGROV1 ovarian
> 59.5 µM: CAKI-1 renal
> 75.9 µM: KM12 colon
70.4 µM: HL-60(TB) leukemia
36.2 µM: SK-MEL-2 melanoma
0.133 µM: SF-539 CNS
> 86.5 µM: SF-295 CNS
> 100 µM: all other assays above
